Read-outs that look alike come from different tables or passages of the source.
Tests used:
Type in all cases: cell-based
Conditions in all cases: 48 hours
[1] = tested on: IFN-γ; test: IFN-γ production by PHA-stimulated human PBMC (OptEIA human IFN-g ELISA)
Procedure, shortened: (§1)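 Healthy-donor PBMC (1×10^5 cells/well) were activated with 2 μg/ml PHA and cultured with test compounds for 48 hours; cytokines were then quantified in supernatants by the respective immunoassay. Screening used 10, 1, 0.1 and 0.01 μM; IC50 came from semilogarithmic compound titration.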

[2] = tested on: IL-17FF; test: IL-17FF production by PHA-stimulated human PBMC (human IL-17F ELI-Pair)
Procedure, shortened: as §1

[3] = tested on: PBMC from healthy human donors; test: T cell proliferation assay (PHA-stimulated human PBMC, BrdU ELISA)
Procedure, shortened: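 Proliferation was quantified by BrdU ELISA 48 hours after starting culture of 1×10⁵ human PBMC per well with test compound and 2 μg/ml phytohaemagglutinin. Cells came from healthy donors via Ficoll separation and were kept in RPMI1640 with 10% dialysed heat-inactivated FCS.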

[4] = PHA-stimulated human PBMC, column C, read-out: IC50 (IFNγ)
[5] = PHA-stimulated human PBMC, column B, read-out: IC50 (IL-17FF)
[6] = PHA-stimulated human PBMC, column D, read-out: IC50 (Tcell proliferation)
[7] = human PBMC, 2 μg/ml PHA, read-out: C: IC50 (IFNγ)
[8] = human PBMC, 2 μg/ml PHA, read-out: B: IC50 (IL-17FF)
[9] = human PBMC, 2 μg/ml PHA, read-out: D: IC50 (Tcell proliferation)

Compound	IC50 [1, 4] [nM]	IC50 [2, 5] [nM]	IC50 [3, 6] [nM]	IC50 [1, 7] [nM]	IC50 [2, 8] [nM]	IC50 [3, 9] [nM]
CC(C)OC(=O)c1c(-c2c(F)cccc2Cl)noc1-c1cnn(-c2cccc(Cl)c2)c1C(F)(F)F [IB-31, isopropyl 3-(2-chloro-6-fluorophenyl)-5-(1-(3-chlorophenyl)-5-(trifluoromethyl)-1H-pyrazol-4-yl)isoxazole-4-carboxylate]	< 10	< 10	< 10			
Fc1cccc(Cl)c1-c1noc(-c2cnn(-c3cccc(Cl)c3)c2C(F)(F)F)c1-c1ccco1 [Example B-6, 3-(2-chloro-6-fluorophenyl)-5-(1-(3-chlorophenyl)-5-(trifluoromethyl)-1H-pyrazol-4-yl)-4-(furan-2-yl)isoxazole]				< 10	< 10	< 10
CCOC(=O)c1c(-c2ccncc2F)noc1-c1cnn(-c2cccc(F)c2)c1C(F)(F)F [IB-14, ethyl 5-(1-(3-fluorophenyl)-5-(trifluoromethyl)-1H-pyrazol-4-yl)-3-(3-fluoropyridin-4-yl)isoxazole-4-carboxylate]	1000 to 10000	100 to 1000	1000 to 10000			
COC(=O)c1c(-c2c(F)cccc2Cl)noc1-c1cnn(-c2ccccc2F)c1C(F)(F)F [Example I-1, methyl 3-(2-chloro-6-fluorophenyl)-5-(1-(2-fluorophenyl)-5-(trifluoromethyl)-1H-pyrazol-4-yl)isoxazole-4-carboxylate]	< 10	10 to 100	10 to 100			
NC(=S)c1c(-c2c(F)cccc2Cl)noc1-c1cnn(-c2ccccc2F)c1C(F)(F)F [IB-102, 3-(2-chloro-6-fluorophenyl)-5-(1-(2-fluorophenyl)-5-(trifluoromethyl)-1H-pyrazol-4-yl)isoxazole-4-carbothioamide]	100 to 1000	100 to 1000	100 to 1000			
Fc1ccccc1-n1ncc(-c2onc(-c3c(F)cccc3Cl)c2-c2nccs2)c1C(F)(F)F [Example B-30, 3-(2-chloro-6-fluorophenyl)-5-(1-(2-fluorophenyl)-5-(trifluoromethyl)-1H-pyrazol-4-yl)-4-(thiazol-2-yl)isoxazole]				10 to 100	10 to 100	10 to 100
Fc1cccc(Cl)c1-c1noc(-c2cnn(-c3cccnc3)c2C(F)(F)F)c1-c1nnco1 [Example B-15, 2-(3-(2-chloro-6-fluorophenyl)-5-(1-(pyridin-3-yl)-5-(trifluoromethyl)-1H-pyrazol-4-yl)isoxazol-4-yl)-1,3,4-oxadiazole]				100 to 1000	100 to 1000	100 to 1000
CCOC(=O)c1c(-c2c(F)cccc2Cl)noc1-c1cnn(-c2ccccc2C#N)c1C(F)(F)F [IB-44, ethyl 3-(2-chloro-6-fluorophenyl)-5-(1-(2-cyanophenyl)-5-(trifluoromethyl)-1H-pyrazol-4-yl)-isoxazole-4-carboxylate]	1000 to 10000	1000 to 10000	1000 to 10000			
COc1csc(-c2c(-c3c(F)cccc3Cl)noc2-c2cnn(-c3cccc(F)c3)c2C(F)(F)F)n1 [Example 10, 3-(2-chloro-6-fluorophenyl)-5-(1-(3-fluorophenyl)-5-(trifluoromethyl)-1H-pyrazol-4-yl)-4-(4-methoxythiazol-2-yl)isoxazole]				10 to 100	100 to 1000	10 to 100
CCOC(=O)c1c(-c2ccc(Cl)cc2Cl)noc1-c1cnn(-c2cccc(F)c2)c1C(F)(F)F [Example I-112, ethyl 3-(2,4-dichlorophenyl)-5-(1-(3-fluorophenyl)-5-(trifluoromethyl)-1H-pyrazol-4-yl)isoxazole-4-carboxylate]	10 to 100	100 to 1000	100 to 1000			
COC(=O)c1c(-c2c(F)cccc2Cl)noc1-c1cnn(-c2ccncc2)c1C(F)(F)F [IB-69, methyl 3-(2-chloro-6-fluorophenyl)-5-(1-(pyridin-4-yl)-5-(trifluoromethyl)-1H-pyrazol-4-yl)isoxazole-4-carboxylate]	10 to 100	10 to 100	10 to 100			

Reference: US8354436B2 (4SC Discovery GmbH, priority 2011, dated 2013)
